27 compounds from US8883782B2, “Spiro-tetracyclic ring compounds as beta-secretase modulators and methods of use” (Amgen Inc., priority 2010, dated 2014) can be followed below.

Read-outs that look alike come from different tables or passages of the source.

Assay [1] concerns Aβ40 in conditioned medium of cells stably expressing Amyloid Precursor Protein (APP). In words: In vitro BACE cell-based assay (Aβ40 in conditioned medium, sandwich ELISA). The procedure, abridged:
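Conditioned medium from stably APP-expressing cells treated with compound dose series is assayed for Aβ40 by sandwich ELISA with time-resolved fluorescence detection. IC50 is calculated from percent inhibition of Aβ40 against compound concentration.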

For assay [2], the target named is Beta Secretase enzyme (BACE) (Homo sapiens, UniProt P56817). Description: In vitro enzymatic BACE FRET (fluorescence resonance energy transfer) assay. In kind it is biochemical. The procedure, abridged:
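A peptide bearing a fluorophore and quencher across the cleavage site serves as substrate at 50 nM. Reactions proceed one hour in acidic acetate buffer (0.05 M, pH 4.2) containing 10% DMSO final and 100 uM genapol, then are terminated with Tris and read fluorimetrically.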

[3] abbreviates: Homo sapiens, HEK293, average IC50, HEK cells, read-out: HEK cell assay.
Where [4] appears, read: average IC50, enzyme assay, read-out: BACE 1 FRET assay.

Sequence of Beta Secretase enzyme (BACE) (P56817 46-501, species assumed): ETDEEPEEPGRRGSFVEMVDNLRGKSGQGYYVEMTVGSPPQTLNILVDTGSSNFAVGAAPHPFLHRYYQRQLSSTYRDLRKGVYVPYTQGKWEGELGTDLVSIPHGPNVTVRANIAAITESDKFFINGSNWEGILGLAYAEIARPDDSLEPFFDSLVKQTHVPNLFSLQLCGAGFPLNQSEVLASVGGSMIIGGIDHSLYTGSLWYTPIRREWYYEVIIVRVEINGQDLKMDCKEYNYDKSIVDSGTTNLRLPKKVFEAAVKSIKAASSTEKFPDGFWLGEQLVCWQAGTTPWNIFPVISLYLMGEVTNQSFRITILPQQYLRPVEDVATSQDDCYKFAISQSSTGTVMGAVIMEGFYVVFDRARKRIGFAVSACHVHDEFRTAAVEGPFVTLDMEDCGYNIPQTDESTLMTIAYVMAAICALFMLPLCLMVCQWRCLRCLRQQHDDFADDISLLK

On to `COc1ccncc1-c1ccc2c(c1)[C@@]1(COC(N)=N1)c1cc(Cl)ncc1O2` [Example 652, (5S)-3-chloro-7-(4-methoxy-3-pyridinyl)spiro[chromeno[2,3-c]pyridine-5,4′-[1,3]oxazol]-2′-amine], for which the IC50 in assay [1] (setting [3]) was determined as 2170 nM; in assay [2] (setting [4]), 1.22 µM.
In the same order, the values of `COc1ccncc1-c1ccc2c(c1)[C@@]1(COC(N)=N1)c1cc(C3=CCOCC3)ncc1O2` [Example 653, (5S)-3-(3,6-dihydro-2H-pyran-4-yl)-7-(4-methoxy-3-pyridinyl)spiro[chromeno[2,3-c]pyridine-5,4′-[1,3]oxazol]-2′-amine] are 9 nM and 0.0104 µM.
For the compound `Cc1ccncc1-c1ccc2c(c1)[C@@]1(COC(N)=N1)c1cc(C3=CCOCC3)ncc1O2` [Example 654, (5S)-3-(3,6-dihydro-2H-pyran-4-yl)-7-(4-methyl-3-pyridinyl)spiro[chromeno[2,3-c]pyridine-5,4′-[1,3]oxazol]-2′-amine], the IC50 in assay [1] (setting [3]) is 13 nM; in assay [2] (setting [4]), 0.0061 µM.
The like results for `N#Cc1ccncc1-c1ccc2c(c1)[C@@]1(COC(N)=N1)c1cc(Cl)ncc1O2` [Example 655, 3-((5S)-2′-amino-3-chlorospiro[chromeno[2,3-c]pyridine-5,4′-[1,3]oxazol]-7-yl)-4-pyridinecarbonitrile] were, in that order, 10000 nM and 0.6 µM.
For the compound `N#Cc1ccncc1-c1ccc2c(c1)[C@@]1(COC(N)=N1)c1cc(C3=CCOCC3)ncc1O2` [Example 656, 3-((5S)-2′-amino-3-(3,6-dihydro-2H-pyran-4-yl)spiro[chromeno[2,3-c]pyridine-5,4′-[1,3]oxazol]-7-yl)-4-pyridinecarbonitrile], the results for the IC50 in assay [1] (setting [3]) and in assay [2] (setting [4]) were 66 nM and 0.0104 µM, respectively.
On to `NC1=N[C@@]2(CO1)c1cc(-c3cccnc3F)ccc1Oc1c2cc(C2=CCCCO2)nc1F` [Example 657, (5S)-3-(3,4-dihydro-2H-pyran-6-yl)-1-fluoro-7-(2-fluoro-3-pyridinyl)spiro[chromeno[2,3-c]pyridine-5,4′-[1,3]oxazol]-2′-amine], for which the results for the IC50 in assay [1] (setting [3]) and in assay [2] (setting [4]) were 5 nM and 0.0004 µM, respectively.
The like results for `NC1=N[C@@]2(CO1)c1cc(-c3cccnc3F)ccc1Oc1c2ccnc1F` [Example 658, (5S)-1-fluoro-7-(2-fluoro-3-pyridinyl)spiro[chromeno[2,3-c]pyridine-5,4′-[1,3]oxazol]-2′-amine] were, in that order, 846 nM and 0.0272 µM.
In the same order, the values of `NC1=N[C@@]2(CO1)c1cc(-c3cccnc3F)ccc1Oc1c2cc([C@@H]2CCCCO2)nc1F` [Example 659, (5S)-1-fluoro-7-(2-fluoro-3-pyridinyl)-3-((2S)-tetrahydro-2H-pyran-2-yl)spiro[chromeno[2,3-c]pyridine-5,4′-[1,3]oxazol]-2′-amine] are 19 nM and 0.0014 µM.
Regarding `NC1=N[C@@]2(CO1)c1cc(-c3cccnc3F)ccc1Oc1c2cc([C@H]2CCCCO2)nc1F` [Example 660, (5S)-1-fluoro-7-(2-fluoro-3-pyridinyl)-3-((2R)-tetrahydro-2H-pyran-2-yl)spiro[chromeno[2,3-c]pyridine-5,4′-[1,3]oxazol]-2′-amine], the figures for the IC50 in assay [1] (setting [3]) and in assay [2] (setting [4]) were 8 nM and 0.0005 µM, respectively.
Turning to `CC1(C#Cc2cc(F)c3c(c2)C2(COC(N)=N2)c2cc(-c4cncc(F)c4)ncc2O3)COC1` (stereo not drawn) [Example 661, 9-fluoro-3-(5-fluoro-3-pyridinyl)-7-((3-methyl-3-oxetanyl)ethynyl)spiro[chromeno[2,3-c]pyridine-5,4′-[1,3]oxazol]-2′-amine], the IC50 in assay [1] (setting [3]) worked out at 852 nM; in assay [2] (setting [4]) it was 0.018 µM.
The like results for `CC1(C#Cc2cc(F)c3c(c2)C2(COC(N)=N2)c2cc(-c4cccnc4F)ncc2O3)COC1` (stereo not drawn) [Example 662, 9-fluoro-3-(2-fluoro-3-pyridinyl)-7-((3-methyl-3-oxetanyl)ethynyl)spiro[chromeno[2,3-c]pyridine-5,4′-[1,3]oxazol]-2′-amine] were, in that order, 129 nM and 0.0033 µM.
With `COc1ccc2c(c1)[C@@]1(COC(N)=N1)c1cc(-n3nccc3C)cc(F)c1O2` [Example 663, (4S)-4′-fluoro-7′-methoxy-2′-(5-methyl-1H-pyrazol-1-yl)spiro[1,3-oxazole-4,9′-xanthen]-2-amine], the IC50 is 8520 nM in assay [1] (setting [3]) and 0.43 µM in assay [2] (setting [4]).
As for `COc1ccc2c(c1)[C@@]1(COC(N)=N1)c1cc(-n3ccc(C)n3)cc(F)c1O2` [Example 664, (4S)-4′-fluoro-7′-methoxy-2′-(3-methyl-1H-pyrazol-1-yl)spiro[1,3-oxazole-4,9′-xanthen]-2-amine], the values for the IC50 in assay [1] (setting [3]) and in assay [2] (setting [4]) were 6670 nM and 1 µM, respectively.
The like results for `NC1=N[C@@]2(CO1)c1cc(O)ccc1Oc1c(F)cc(-n3cccn3)cc12` [Example 665, (4S)-2-amino-5′-fluoro-7′-(1H-pyrazol-1-yl)spiro[1,3-oxazole-4,9′-xanthen]-2′-ol] were, in that order, 4580 nM and 1.1 µM.
In the same order, the values of `CC1(C#Cc2cnc3c(c2)[C@]2(CSC(N)=N2)c2cc(-c4cnccn4)ccc2O3)COC1` [Example 666, (5S)-3-((3-methyl-3-oxetanyl)ethynyl)-7-(2-pyrazinyl)spiro[chromeno[2,3-b]pyridine-5,4′-[1,3]thiazol]-2′-amine] are 13 nM and 0.0008 µM.
In the same order, the values of `CC(C)(C#N)COc1cc(F)c2c(c1)[C@]1(COC(N)=N1)c1cc(-c3cncnc3)c(F)cc1O2` [Example 667, 3-(((4S)-2-amino-4′,6′-difluoro-7′-(5-pyrimidinyl)spiro[1,3-oxazole-4,9′-xanthen]-2′-yl)oxy)-2,2-dimethylpropanenitrile] are 16 nM and 0.0006 µM.
As to `CC1(C)CC(c2cnc3c(c2)[C@]2(CSC(N)=N2)c2cc(-c4cncnc4)ccc2O3)=CCO1` [Example 669, (5S)-3-(2,2-dimethyl-3,6-dihydro-2H-pyran-4-yl)-7-(5-pyrimidinyl)spiro[chromeno[2,3-b]pyridine-5,4′-[1,3]thiazol]-2′-amine], the IC50 came to 10 nM in assay [1] (setting [3]) and 0.0008 µM in assay [2] (setting [4]).
In the same order, the values of `CC1(C)C=C(c2cnc3c(c2)[C@]2(CSC(N)=N2)c2cc(-c4cncnc4)ccc2O3)CCO1` [Example 670, (5S)-3-(6,6-dimethyl-3,6-dihydro-2H-pyran-4-yl)-7-(5-pyrimidinyl)spiro[chromeno[2,3-b]pyridine-5,4′-[1,3]thiazol]-2′-amine] are 9 nM and 0.0009 µM.
In the same order, the values of `COC(C)(C)C#Cc1ccc2c(c1)[C@@]1(CSC(N)=N1)c1cc(-c3cccnc3)cnc1O2` [Example 671, (5S)-7-(3-methoxy-3-methyl-1-butyn-1-yl)-3-(3-pyridinyl)spiro[chromeno[2,3-b]pyridine-5,4′-[1,3]thiazol]-2′-amine] are 140 nM and 0.019 µM.
The like results for `NC1=N[C@@]2(CO1)c1cc(-c3cccnc3F)ccc1Oc1c2cc(N2CC[C@@H](F)C2)nc1F` [Example 673, (5S)-1-fluoro-7-(2-fluoro-3-pyridinyl)-3-((3R)-3-fluoro-1-pyrrolidinyl)spiro[chromeno[2,3-c]pyridine-5,4′-[1,3]oxazol]-2′-amine] were, in that order, 3 nM and 0.0003 µM.
Regarding `CC(C)(C)C#Cc1cc2c(nc1F)Oc1ccc(-c3cccnc3F)cc1[C@]21COC(N)=N1` [Example 674, (5R)-3-(3,3-dimethyl-1-butyn-1-yl)-2-fluoro-7-(2-fluoro-3-pyridinyl)spiro[chromeno[2,3-b]pyridine-5,4′-[1,3]oxazol]-2′-amine], the figures for the IC50 in assay [1] (setting [3]) and in assay [2] (setting [4]) were 2810 nM and 0.239 µM, respectively.
The like results for `NC1=N[C@@]2(CO1)c1cc(-c3ccnc(F)c3)ccc1Oc1cnc(Cl)cc12` [Example 675, (5S)-3-chloro-7-(2-fluoro-4-pyridinyl)spiro[chromeno[2,3-c]pyridine-5,4′-[1,3]oxazol]-2′-amine] were, in that order, 415 nM and 2.63 µM.
The like results for `NC1=N[C@]2(CO1)c1ccncc1Oc1ccc(-c3c(F)ccnc3F)cc12` [Example 677, (5S)-7-(2,4-difluoro-3-pyridinyl)spiro[chromeno[2,3-c]pyridine-5,4′-[1,3]oxazol]-2′-amine] were, in that order, 580 nM and 0.0516 µM.
For the compound `CC1(C)C=C(c2cc3c(cn2)Oc2ccc(-c4cncnc4)cc2[C@@]32COC(N)=N2)CCO1` [Example 678, (5S)-3-(6,6-dimethyl-3,6-dihydro-2H-pyran-4-yl)-7-(5-pyrimidinyl)spiro[chromeno[2,3-c]pyridine-5,4′-[1,3]oxazol]-2′-amine], the IC50 was 8 nM in assay [1] (average IC50, HEK cells) and 0.0009 µM in assay [2] (BACE 1 FRET assay (uM)).
As to `CC1(C)CC(c2cc3c(cn2)Oc2ccc(-c4cncnc4)cc2[C@@]32COC(N)=N2)=CCO1` [Example 679, (5S)-3-(2,2-dimethyl-3,6-dihydro-2H-pyran-4-yl)-7-(5-pyrimidinyl)spiro[chromeno[2,3-c]pyridine-5,4′-[1,3]oxazol]-2′-amine], the IC50 is 14 nM in assay [1] (setting [3]) and 0.0016 µM in assay [2] (setting [4]).
For the compound `COc1ccnc(F)c1-c1ccc2c(c1)[C@@]1(COC(N)=N1)c1cc(Cl)ncc1O2` [Example 680, (5S)-3-chloro-7-(2-fluoro-4-methoxy-3-pyridinyl)spiro[chromeno[2,3-c]pyridine-5,4′-[1,3]oxazol]-2′-amine], the IC50 in assay [1] (setting [3]) worked out at 806 nM; in assay [2] (setting [4]), 0.0153 µM.
On to `COc1ccnc(F)c1-c1ccc2c(c1)[C@@]1(COC(N)=N1)c1cc(-c3ccnc(F)c3)ncc1O2` [Example 681, (5S)-7-(2-fluoro-4-methoxy-3-pyridinyl)-3-(2-fluoro-4-pyridinyl)spiro[chromeno[2,3-c]pyridine-5,4′-[1,3]oxazol]-2′-amine], for which the IC50 in assay [1] (setting [3]) is 12 nM; in assay [2] (setting [4]), 0.0005 µM.
